Several values for one entry are separate records, joined by “and”; a condition that tells them apart may be missing. Identical values can stand only once. Where a SMILES comes first, the peptide text is derived from it. [ ]: non-standard residue; d: D form. Hyp = O=C(O)[C@@H]1C[C@@H](O)CN1
Tests used:
IL-17A = assay: Example 9 Luminex, LPS hPBMCs: IL-17A; format: cell-based, human
Protocol: (§1) Treatment Human PBMCs were pretreated with YY-101, YDE-011 and YDE-043 or reference compound; Xiidra® at various concentration (ranging from 1 nM to 100 uM) for 2 h before stimulation. An equal volume of 0.5% DMSO was used as a vehicle control. Then, the cells were treated with LPS at 5 ug/ml. The supernatants from treated cells were harvested at 24 h and placed in a 96 well for Luminex cytokine & chemokine profiling using a Luminex 200 multiplex assay (Luminex; R&D system, USA).
(§2) The main study arm with triplicate wells per group in a 24-well plate: • 1. Blank • 2. PBMC: 0.5% DMSO • 3. PBMC+LPS (5 ug/ml) • 4. PBMC+YY-101 100 uM • 5. PBMC+YY-101 10 uM • 6. PBMC+YY-101 1 uM • 7. PBMC+YY-101 0.1 uM • 8. PBMC+YY-101 0.01 uM • 9. PBMC+LPS (5 ug/ml)+Xiidra®100 uM • 10. PBMC+LPS (5 ug/ml)+Xiidra® 10 uM • 11. PBMC+LPS (5 ug/ml)+Xiidra® 1 uM • 12. PBMC+LPS (5 ug/ml)+Xiidra®0.1 uM • 13. PBMC+LPS (5 ug/ml)+Xiidra®0.01 uM • 14. PBMC+LPS (5 ug/ml)+Xiidra®0.001 uM • 15. PBMC+LPS (5 ug/ml)+YY-101 100 uM • 16. PBMC+LPS (5 ug/ml)+YY-101 10 uM • 17. PBMC+LPS (5 ug/ml)+YY-101 1 uM • 18. PBMC+LPS (5 ug/ml)+YY-101 0.1 uM • 19. PBMC+LPS (5 ug/ml)+YY-101 0.01 uM • 20. PBMC+LPS (5 ug/ml)+YY-101 0.001 uM • 21. PBMC+LPS (5 ug/ml)+YDE-011 100 uM • 22. PBMC+LPS (5 ug/ml)+YDE-011 10 uM • 23. PBMC+LPS (5 ug/ml)+YDE-011 1 uM • 24. PBMC+LPS (5 ug/ml)+YDE-011 0.1 uM • 25. PBMC+LPS (5 ug/ml)+YDE-011 0.01 uM • 26. PBMC+LPS (5 ug/ml)+YDE-011 0.001 uM • 27. PBMC+LPS (5 ug/ml)+YDE-043 100 uM • 28. PBMC+LPS (5 ug/ml)+YDE-043 10 uM • 29. PBMC+LPS (5 ug/ml)+YDE-043 1 uM • 30. PBMC+LPS (5 ug/ml)+YDE-043 0.1 uM • 31. PBMC+LPS (5 ug/ml)+YDE-043 0.01 uM • 32. PBMC+LPS (5 ug/ml)+YDE-043 0.001 uM
(§3) Multiplex assay was used to measure 30 cytokines and chemokines. The 1:2, 1:10 and 1:200 diluted cell supernatant and serial dilution of the standard were dispensed into a 96 well plate at 50 ul/well. Then, the pre-mixed cocktail of antibody-coated magnetic beads was dispensed at 50 ul/well and incubated at room temperature for 2 h in a horizontal orbital microplate shaker at 800±500 rpm. The beads were washed using a magnetic device to prevent loss. The biotin-antibody was dispensed in 50 ul of each well and incubated at room temperature for 1 h in a shaker at 800±500 rpm. After washing, streptavidin-PE was added at 50 ul/well and incubated at room temperature for 30 min in a shaker under the same conditions. Finally, after washing, wash buffer (100 ul/well) was added to the plate and incubated in a shaker for 2 min. The Luminex™ 200 setting were set according to the manufacturer's protocol. The data was calculated with a standard five-parameter logistic nonlinear regression analysis of the data (xPonent software 4.2, USA). The levels of cytokine/chemokine are normalized to the live cell counts (1×10^5 cells/mL) and presented as concentrations per mL (pg/mL or ng/mL).

IL-8 = assay: Example 9 Luminex, LPS hPBMCs: IL-8; format: cell-based, human
Protocol: as §1, §2, §3

[1] = PBMC + LPS(5 ug/ml) + test article 0.001 uM, Mean
[2] = PBMC + LPS(5 ug/ml) + test article 0.001 uM, single replicates (1st, 2nd, 3rd)
[3] = PBMC + LPS(5 ug/ml) + test article 0.01 uM, Mean
[4] = PBMC + LPS(5 ug/ml) + test article 0.01 uM, single replicates (1st, 2nd, 3rd)
[5] = PBMC + LPS(5 ug/ml) + test article 0.1 uM, Mean
[6] = PBMC + LPS(5 ug/ml) + test article 0.1 uM, single replicates (1st, 2nd, 3rd)
[7] = PBMC + LPS(5 ug/ml) + test article 1 uM, Mean
[8] = PBMC + LPS(5 ug/ml) + test article 1 uM, single replicates (1st, 2nd, 3rd)
[9] = PBMC + LPS(5 ug/ml) + test article 10 uM, Mean
[10] = PBMC + LPS(5 ug/ml) + test article 10 uM, single replicates (1st, 2nd, 3rd)
[11] = PBMC + LPS(5 ug/ml) + test article 100 uM, Mean
[12] = PBMC + LPS(5 ug/ml) + test article 100 uM, single replicates (1st, 2nd, 3rd)

CC(C)C[C@H](NC(=O)CNC(=O)[C@H](CC(C)C)NC(=O)[C@H](CCC(N)=O)NC(=O)CNC(=O)[C@@H]1C[C@@H](O)CN1)C(=O)N[C@@H](C)C(=O)NCC(=O)N1CCC[C@H]1C(=O)N[C@@H](CCCCN)C(=O)O [YDE-011] (H-[Hyp]GQLGLAGPK-OH)
Concentration, IL-17A (IL-17A; [1]): 3.3 pg/mL
MFI, Bead name: IL-17A (IL-17A; [1]): 1.8
conc/live cell, IL-17A (IL-17A; [1]): 0.6 pg/10^5
Concentration, IL-17A (IL-17A; [2]): 4.3 pg/ml and 2.7 pg/ml (2×)
MFI, Bead name: IL-17A (IL-17A; [2]): 2.5 and 1.5 (2×)
conc/live cell, IL-17A (IL-17A; [2]): 1.0 pg/10^5 and 0.5 pg/10^5 (2×)
Concentration, IL-17A (IL-17A; [3]): 2.1 pg/mL
MFI, Bead name: IL-17A (IL-17A; [3]): 1.2
conc/live cell, IL-17A (IL-17A; [3]): 0.4 pg/10^5
Concentration, IL-17A (IL-17A; [4]): 1.0 pg/ml (2×) and 4.3 pg/ml
MFI, Bead name: IL-17A (IL-17A; [4]): 0.5 (2×) and 2.5
conc/live cell, IL-17A (IL-17A; [4]): 0.2 pg/10^5 (2×) and 0.9 pg/10^5
Concentration, IL-17A (IL-17A; [5]): 1.6 pg/mL
MFI, Bead name: IL-17A (IL-17A; [5]): 0.8
conc/live cell, IL-17A (IL-17A; [5]): 0.3 pg/10^5
Concentration, IL-17A (IL-17A; [6]): 2.7 pg/ml and 1.0 pg/ml (2×)
MFI, Bead name: IL-17A (IL-17A; [6]): 1.5 and 0.5 (2×)
conc/live cell, IL-17A (IL-17A; [6]): 0.4 pg/10^5 and 0.2 pg/10^5 (2×)
Concentration, IL-17A (IL-17A; [7]): 3.8 pg/mL
MFI, Bead name: IL-17A (IL-17A; [7]): 2.2
conc/live cell, IL-17A (IL-17A; [7]): 0.8 pg/10^5
Concentration, IL-17A (IL-17A; [8]): 4.3 pg/ml (2×) and 2.7 pg/ml
MFI, Bead name: IL-17A (IL-17A; [8]): 2.5 (2×) and 1.5
conc/live cell, IL-17A (IL-17A; [8]): 0.8 pg/10^5 and 0.9 pg/10^5 and 0.6 pg/10^5
Concentration, IL-17A (IL-17A; [9]): 2.7 pg/mL
MFI, Bead name: IL-17A (IL-17A; [9]): 0.8
conc/live cell, IL-17A (IL-17A; [9]): 0.3 pg/10^5
Concentration, IL-17A (IL-17A; [10]): 2.7 pg/mL
MFI, Bead name: IL-17A (IL-17A; [10]): 1.5 (2×) and −0.5
conc/live cell, IL-17A (IL-17A; [10]): 0.5 pg/10^5 (2×) and 0.0 pg/10^5
Concentration, IL-17A (IL-17A; [11]): 1.0 pg/mL
MFI, Bead name: IL-17A (IL-17A; [11]): 0.2
conc/live cell, IL-17A (IL-17A; [11]): 0.1 pg/10^5
Concentration, IL-17A (IL-17A; [12]): 1.0 pg/mL
MFI, Bead name: IL-17A (IL-17A; [12]): 0.5 (2×) and −0.5
conc/live cell, IL-17A (IL-17A; [12]): 0.2 pg/10^5 (2×) and 0.0 pg/10^5
Concentration (IL-8; [1]): 26175.1 pg/mL
conc/live cell (IL-8; [1]): 4943.8 pg/10^5
Concentration (IL-8; [2]): 25949.1 pg/mL and 25243.2 pg/mL and 27333.0 pg/mL
conc/live cell (IL-8; [2]): 5766.5 pg/10^5 and 4352.3 pg/10^5 and 4712.6 pg/10^5
Concentration (IL-8; [3]): 27857.4 pg/mL
conc/live cell (IL-8; [3]): 4784.6 pg/10^5
Concentration (IL-8; [4]): 29106.4 pg/mL and 27148.3 pg/mL and 27317.6 pg/mL
conc/live cell (IL-8; [4]): 4694.6 pg/10^5 and 5323.2 pg/10^5 and 4336.1 pg/10^5
Concentration (IL-8; [5]): 25867.3 pg/mL
conc/live cell (IL-8; [5]): 4548.1 pg/10^5
Concentration (IL-8; [6]): 25672.8 pg/mL and 26225.6 pg/mL and 25703.5 pg/mL
conc/live cell (IL-8; [6]): 3889.8 pg/10^5 and 5245.1 pg/10^5 and 4509.4 pg/10^5
Concentration (IL-8; [7]): 25627.6 pg/mL
conc/live cell (IL-8; [7]): 5106.9 pg/10^5
Concentration (IL-8; [8]): 26271.7 pg/mL and 26379.3 pg/mL and 24231.7 pg/mL
conc/live cell (IL-8; [8]): 4776.7 pg/10^5 and 5495.7 pg/10^5 and 5048.3 pg/10^5
Concentration (IL-8; [9]): 25105.4 pg/mL
conc/live cell (IL-8; [9]): 4765.2 pg/10^5
Concentration (IL-8; [10]): 25626.7 pg/mL and 25335.2 pg/mL and 24354.2 pg/mL
conc/live cell (IL-8; [10]): 4745.7 pg/10^5 and 4368.1 pg/10^5 and 5181.8 pg/10^5
Concentration (IL-8; [11]): 26038.5 pg/mL
conc/live cell (IL-8; [11]): 4290.3 pg/10^5
Concentration (IL-8; [12]): 27702.6 pg/mL and 26563.8 pg/mL and 23849.1 pg/mL
conc/live cell (IL-8; [12]): 4541.4 pg/10^5 and 4354.7 pg/10^5 and 3974.8 pg/10^5
